One test relates to T1, PDE4L (LARBS).
T1 construct: other: considered equal to the PDE4 IC50
The experiment in a line: Binding to peripheral LARBS (PDE4L). The following applies: considered equal to the PDE4 IC50. The source says: [21]. […] In the brain, there are two binding sites for rolipram, which are high (HARBS) and low affinity rolipram binding sites (LARBS), while in the periphery of bronchi and lung there exist only LARBS. Generally, the anti-inflammatory and the bronchodilatory effects of rolipram are considered as its ability to bind with LARBS [21].

The subject of test [1] is OVA-induced contractions of sensitized guinea pig trachea. The experiment in a line: Cumulative OVA-induced contractions of isolated sensitized trachea in vitro (Assay IV). As to conditions: FIG. 4. From the text:
The guinea pigs were ready for use after day 25 [20]. Under a protocol approved by the Animal Care and Use Committee of Taipei Medical University, the tracheae of guinea pigs (Hartley) were sacrificed and removed therefrom. The tracheae were carefully trimmed off the excessive surrounding tissues and cut into six segments. Each segment consisted of three cartilage rings. All segments were cut open opposite the trachealis. […] The composition of the normal Krebs solution was (mM): […] The tissues were suspended in normal Krebs solution under an initial tension of 1.5 g and allowed to equilibrate for at least 1 h with washing at 15-min intervals. After the tissues were precontracted with KCl (60 mM) and washed with normal Krebs solution, OVA (0.1-100 μg/ml) was cumulatively added, and contractions were allowed to reach a steady state at each concentration. […] The tension of precontraction induced by KCl before experiment was set as 100%.

Test [2] addresses T2, high affinity rolipram binding sites (HARBS, PDE4H).
T2 construct: IC50 for displacement of [3H]-rolipram from HARBS; other: 300 μM, guinea pig, preliminary experimental data; other: guinea pig whole brain particulates; over 300 μM not available due
Description: Binding to particulate HARBS of whole brain, displacement of [3H]-rolipram (Assay II). Details: species or system guinea pig. As to conditions: for IC50: guinea pig whole brain particulates; for bound to HARBS of the whole brain cell particulates: 300 μM, guinea pig, preliminary experimental data. As to the method: (§1) The binding experiments are carried on basis of the methods of Schneider et al. and Zhao et al. with a small modification. Under a protocol approved by the Animal Care and Use Committee of Taipei Medical University, five male guinea pigs (Hartley), weighing 500-600 g, were anesthetized. The whole brains taken therefrom were homogenized with in 10 volumes of cold medium (pH 6.5) containing 20 mM Bis-Tris, 2 mM benzamidine, 2 mM EDTA, 50 mM sodium chloride, 0.1 mM phenylmethanesulfonyl fluoride (PMSF), and 1 mM dithiothreitol. At 4° C., the homogenate was centrifuged at 170 g for 15 min for removing blood vessels and connective tissues, and the supernatant thereof was then re-centrifuged at 40,000 g for 30 min for separating the particulates from the cytosol of cells.
(§2) After incubation, the reaction was stopped by transferring the reaction vessel to a bath of crashed ice. Then the reaction mixture was filtered through a punched glass fiber filter (Whatman GF/B) placed in a mini funnel, which was adopted to a 1.5 ml of Eppendorff's tube for collecting the filtrate in the mini centrifuge at 1000 rpm for 10 seconds. By the same way (centrifugation), it is further washed with 0.3 ml reaction buffer each for three times. The Whatman GF/B filter was mixed with 2 ml of cocktail and counted by the β-scintillation counter (Backman, Fullerton, Calif., USA) for counting the radioactivity thereof.

In test [3] the test system is OVA-sensitized and challenged BALB/c mice, methacholine-induced Penh. The experiment in a line: Airway hyperresponsiveness in vivo, Penh by whole-body plethysmography (Assay III). Also on record: species or system mouse. As to conditions: i.p., FIG. 3A. On the procedure: Sensitization, airway challenge, and allergen provocation was carried out as described by Kanehiro et al with some modifications. The female BALB/c mice from 8 to 12 week of age were obtained from National Laboratory Animal Center (Taiwan), and maintained on diets free of ovalbumin (OVA). Mice were sensitized by an intraperitoneal (i.p.) injection of 20 μg of OVA emulsified in 2.25 mg aluminum hydroxide gel in a total volume of 100 μl on days 0 and 14. For comparison, some mice were not sensitized, but received sham injection. All mice were challenged via the airway by OVA (1% in saline) for 30 min on days 28, 29, and 30 by ultrasonic nebulization. […] AHR was assessed on day 73 (48 h after 1% OVA provocation) for each group. […] The AHR was measured in unrestrained animals by barometric plethysmography using a whole-body plethysmograph (WBP) (Buxco, Troy, N.Y., USA). Mice were placed into the main chamber of the WBP and nebulized first with phosphate buffer solution (PBS), then with increasing doses (6.25-50 mg/ml) of methacholine (MCh) for 3 min for each nebulization, followed by readings of breathing parameters for 3 min after each nebulization with determination of enhanced pause (Penh) values. […] The number of inflammatory cells was counted using a hemacytometer (Hausser Sci., Horsham, Pa., USA). […]

Test [4] has as its system high affinity rolipram binding sites (HARBS, PDE4H). Description: Binding to particulate HARBS of whole brain, displacement of [3H]-rolipram (Assay II). The following applies: HARBS 50% binding concentration over PDE4 IC50. Details: species or system guinea pig. On the procedure:
as §1, §2
In general terms: Displacement assays read how much labelled ligand stays bound in the presence of the test substance.

The mark [5] stands for this setting: 2 nM [3H]-rolipram, FIG. 2, read-out: IC50 for displacement of [3H]-rolipram from HARBS.
[6] abbreviates: over 300 μM not available due to solubility, read-out: concentration for having 50% of HARBS bound.

Where two headings read alike, the source gives them in different places.

Experimental findings from patent US20060229358A1, “Pharmaceutical composition containing flavonoids” (Taipei Medical University, priority 2005, published 2006) are described below.

In the case of `COc1ccc(C2CC(=O)c3c(O)cc(O)cc3O2)cc1O` (stereo not shown) [Hesperetin], the “concentration for binding to an half of the LARBS” value in the test with PDE4L (LARBS) was determined as 28.2 µM. For the same compound, the “OVA (both 10 and 100 μg/ml)-induced contractions” value in test [1] (30 μM preincubated 15 min) is given as “significantly antagonized”. Besides, the “OVA (100 μg/ml)-induced contractions” value in test [1] (3~30 μM preincubated 15 min, standardized by 60 mM KCl) is “antagonized”. Moreover, the IC50 in test [2] (setting [5]) and in test [2] (setting [6]) was more than 300 µM throughout. Moreover, in test [2], the “bound to HARBS of the whole brain cell particulates” value is listed as 17.5%. Moreover, the “Penh values compared with non-sensitized mice” value in test [3] (3~30 μmol/kg) is “not significantly different”. In test [3] (10 and 30 μmol/kg, sensitized mice), the “Penh values induced by 50 mg/ml MCh” value is given as “significantly suppressed”.
As to `COc1cc(O)c2c(=O)c(-c3ccc(O)cc3)coc2c1` [Prunetin], the “concentration for binding to an half of the LARBS” value in the test with PDE4L (LARBS) came to 61.9 µM. In addition, the IC50 in test [2] (setting [5]) and in test [2] (setting [6]) was more than 300 µM in each case. Also, the “bound to HARBS of the whole brain cell particulates” value in test [2] is recorded as 24.2%. For the same compound, the PDE4H/PDE4L ratio entry in test [4] was “greater than 5”.
